Measurements reported in patent publication US10266535B2, “Inhibitor of FLT3 kinase and use thereof” (HEFEI INSTITUTES OF PHYSICAL SCIENCE, CHINESE ACADEMY OF …, priority 2015, dated 2019).
Counter-ions that a name gives are not always drawn. Like-named read-outs stand apart in the source and are kept apart here.

Columns and labels:
[1] = tested on: TEL-BaF3-FLT3/ITD (stably expressing FLT3/ITD mutant activated kinase); test: Cell proliferation, Cell Titer-Glo, TEL-BaF3-FLT3/ITD; type: cell-based, mouse
Protocol: (§1) The above cell lines were constructed by our laboratory.
(§2) The number of viable cells was determined by quantification of ATP in living cells using the Cell Titer-Glo® (Promega, USA) chemiluminescence cell viability assay kit.

[2] = tested on: U937 (expressing wild-type FLT3 gene); test: Cell proliferation, Cell Titer-Glo, U937; type: cell-based, human; conditions: Homo sapiens, U-937, 72 h, incubated for 72 hours; read-out: U937 IC50
Protocol: as §1, §2

[3] = tested on: MV4-11 (expressing FLT3/ITD mutant gene); test: Cell proliferation, Cell Titer-Glo, MV4-11; type: cell-based; conditions: Homo sapiens
Protocol: as §1, §2

[4] = tested on: MOLM-13 (expressing FLT3/ITD mutant gene and wild-type FLT3 gene); test: Cell proliferation, Cell Titer-Glo, MOLM-13; type: cell-based; conditions: Homo sapiens, MOLM-13; incubated for 72 hours; read-out: MOLM-13 IC50
Protocol: as §1, §2

pro-B cell BaF3 = test: Cell proliferation, Cell Titer-Glo, BaF3; type: cell-based; conditions: Mus musculus, incubated for 72 hours
Protocol: as §1, §2

[5] = tested on: OCI-AML-3 (expressing FLT3 A680V mutant gene); test: Cell proliferation, Cell Titer-Glo, OCI-AML3; type: cell-based; conditions: Homo sapiens, incubated for 72 hours
Protocol: as §1, §2

[6] = tested on: TEL-BaF3-BMX (stably expressing BMX kinase); test: Cell proliferation, Cell Titer-Glo, TEL-BaF3-BMX; type: cell-based; conditions: Mus musculus; incubated for 72 hours
Protocol: as §1, §2

[7] = tested on: TEL-cKIT-BaF3 (stably expressing cKIT kinase); test: Cell proliferation, Cell Titer-Glo, TEL-cKIT-BaF3; type: cell-based; conditions: Mus musculus; incubated for 72 hours
Protocol: as §1, §2

[8] = tested on: TEL-BaF3-BLK (stably expressing BLK kinase); test: Cell proliferation, Cell Titer-Glo, TEL-BaF3-BLK; type: cell-based; conditions: Mus musculus; incubated for 72 hours
Protocol: as §1, §2

[9] = Mus musculus, 72 h, incubated for 72 hours, read-out: TEL-BaF3-FLT3/ITD IC50
[10] = MV4-11, incubated for 72 hours, read-out: MV4-11 IC50

Row | Compound | IC50 [1, 9] | IC50 [2] | IC50 [3, 10] | IC50 (pro-B cell BaF3) | also measured
1 | Nc1ncc(C(=O)N2CCC[C@@H](n3nc(-c4ccc(Oc5ccccc5)cc4)c4c(N)ncnc43)C2)cn1 [Compound 21, (R)-(3-(4-amino-(4-phenoxyphenyl)-1H-pyrazolo[3,4-d]pyrimidin-1-yl)piperidin-1-yl)(2-aminopyrimidin-5-yl)methanone] | 0.33 µM | > 10000 nM |  |  | 
2 | CC(C)(C)OC(=O)NCC(=O)N1CC[C@@H](n2nc(-c3ccc(Oc4ccccc4)cc3)c3c(N)ncnc32)C1 [Compound 66, (R)-tert-butyl 2-(3-(4-amino-(4-phenoxyphenyl)-1H-pyrazolo[3,4-d]pyrimidin-1-yl)pyrrolidin-1-yl)-2-oxoethylcarbamate] | 0.16 µM |  | 0.73 µM | 6340 nM | IC50 [4]: 1600 nM
3 | CC(C)(C)OC(=O)NCC(=O)N1CCC[C@@H](n2nc(-c3ccc(Oc4ccccc4)cc3)c3c(N)ncnc32)C1 [Compound 59, (R)-tert-butyl 2-(3-(4-amino-3-(4-phenoxyphenyl)-1H-pyrazolo[3,4-d]pyrimidin-1-yl)piperidin-1-yl)-2-oxoethylcarbamate] | 0.18 µM |  | 0.429 µM | 9290 nM | IC50 [4]: 775 nM
4 | Nc1ncnc2c1c(-c1ccc(Oc3ccccc3)cc1)nn2[C@@H]1CCCN(C(=O)c2ccc3c(c2)OCO3)C1 [Compound 18, (R)-(3-(4-amino-(4-phenoxyphenyl)-1H-pyrazolo[3,4-d]pyrimidin-1-yl)piperidin-1-yl)-(3,4-methylenedioxyphenyl)mathanone] | 1.8 µM | > 10000 nM |  |  | 
5 | CC(C)(C)CC(=O)N1CCC[C@@H](n2nc(-c3ccc(Oc4ccccc4)cc3)c3c(N)ncnc32)C1 [Compound 49] | 0.46 µM | > 10000 nM | 2.4 µM |  | IC50 [5]: > 10000 nM
6 | CN(C)CC(=O)N1CCC(n2nc(-c3ccc(Oc4ccccc4)cc3)c3c(N)ncnc32)CC1 [Compound 72, 1-(4-(4-amino-(4-phenoxyphenyl)-1H-pyrazolo[3,4-d]pyrimidin-1-yl)piperidin-1-yl)-2-(dimethylamino)ethanone] | 0.075 µM |  |  | 3650 nM | 
7 | NCCCCC(=O)N1CCC[C@@H](n2nc(-c3ccc(Oc4ccccc4)cc3)c3c(N)ncnc32)C1 [Compound 62] | 0.41 µM |  | 0.38 µM | 8460 nM | IC50 [4]: 1200 nM
8 | CCC(C)(C)C(=O)N1CCC[C@@H](n2nc(-c3ccc(Oc4ccccc4)cc3)c3c(N)ncnc32)C1 [Compound 50] | 0.26 µM | > 10000 nM | 2.4 µM |  | IC50 [5]: > 10000 nM
9 | CCCCC(O)C(=O)N1CCC[C@@H](n2nc(-c3ccc(Oc4ccccc4)cc3)c3c(N)ncnc32)C1 (stereo partly drawn) [Compound 63] | 0.15 µM |  | 0.35 µM | 4690 nM | IC50 [4]: 720 nM
10 | CCCC(=O)N1CCC[C@@H](n2nc(-c3ccc(Oc4ccccc4)cc3)c3c(N)ncnc32)C1 [Compound 54] | 0.45 µM | > 10000 nM | 1.2 µM |  | IC50 [5]: > 10000 nM
11 | CCS(=O)(=O)N1CCC[C@@H](n2nc(-c3ccc(Oc4ccccc4)cc3)c3c(N)ncnc32)C1 [Compound 41, (R)-3-(4-phenoxyphenyl)-1-(1-(ethylsulfonyl)piperidin-3-yl)-1H-pyrazolo[3,4-d]pyrimidin-4-amine] | 0.14 µM | 5840 nM | 0.57 µM |  | IC50 [5]: 4850 nM
12 | C[C@@H](N)C(=O)N1CCC[C@@H](n2nc(-c3ccc(Oc4ccccc4)cc3)c3c(N)ncnc32)C1 [Compound 24, (R)-2-amino-1-((R)-3-(4-amino-(4-phenoxyphenyl)-1H-pyrazolo[3,4-d]pyrimidin-1-yl)piperidin-1-yl)propan-1-one] |  | 7800 nM |  |  | IC50 ([1]; incubated for 72 hours, read-out: TEL-BaF3-FLT3/ITD IC50): 0.67 µM
13 | Nc1ccc(C(=O)N2CCC[C@@H](n3nc(-c4ccc(Oc5ccccc5)cc4)c4c(N)ncnc43)C2)cn1 [Compound 17, (R)-(3-(4-amino-(4-phenoxyphenyl)-1H-pyrazolo[3,4-d]pyrimidin-1-yl)piperidin-1-yl)(6-aminopyridin-3-yl)methanone] | 0.88 µM | > 10000 nM |  |  | 
14 | COC(=O)c1ccc(C(=O)N2CCC[C@@H](n3nc(-c4ccc(Oc5ccccc5)cc4)c4c(N)ncnc43)C2)cc1 [Compound 16, (R)-methyl 4-(3-(4-amino-(4-phenoxyphenyl)-1H-pyrazolo[3,4-d]pyrimidin-1-yl)piperidine-1-carbonyl)benzoate] | 6 µM | > 10000 nM |  |  | 
15 | Nc1ncnc2c1c(-c1ccc(Oc3ccccc3)cc1)nn2[C@@H]1CCCN(C(=O)CC2CC2)C1 [Compound 52] | 0.082 µM | > 10000 nM | 0.41 µM |  | IC50 [5]: 7890 nM
16 | CN1CCN(Cc2ccc(C(=O)N3CCC[C@@H](n4nc(-c5ccc(Oc6ccccc6)cc5)c5c(N)ncnc54)C3)cc2)CC1 [Compound 35, (R)-(3-(4-amino-(4-phenoxyphenyl)-1H-pyrazolo[3,4-d]pyrimidin-1-yl)piperidin-1-yl)(4-((4-methylpiperazin-1-yl)methyl)phenyl)methanone] | 0.07 µM | 1060 nM | 0.28 µM |  | IC50 [5]: 620 nM
17 | Nc1ncnc2c1c(-c1ccc(Oc3ccccc3)cc1)nn2[C@@H]1CCCN(C(=O)C2CCNCC2)C1 [Compound 19, (R)-(3-(4-amino-(4-phenoxyphenyl)-1H-pyrazolo[3,4-d]pyrimidin-1-yl)piperidin-1-yl)-4-piperidinmethanone] | 0.79 µM | > 10000 nM |  |  | 
18 | CC(C)CC(=O)N1CCC[C@@H](n2nc(-c3ccc(Oc4ccccc4)cc3)c3c(N)ncnc32)C1 [Compound 53] | 0.77 µM | > 10000 nM | 3.4 µM |  | IC50 [5]: > 10000 nM
19 | CC(C)C[C@@H](N)C(=O)N1CCC(n2nc(-c3ccc(Oc4ccccc4)cc3)c3c(N)ncnc32)CC1 [Compound 74, (R)-2-amino-1-(4-(4-amino-(4-phenoxyphenyl)-1H-pyrazolo[3,4-d]pyrimidin-1-yl)piperidin-1-yl)-4-methylpentan-1-one] | 0.075 µM |  |  | 590 nM | 
20 | Nc1ncnc2c1c(-c1ccc(Oc3ccccc3)cc1)nn2[C@@H]1CCCN(S(=O)(=O)C(F)(F)F)C1 [Compound 3, (R)-3-(4-phenoxyphenyl)-1-(1-((trifluoromethyl)sulfonyl)piperidin-3-yl)-1H-pyrazolo[3,4-d]pyrimidin-4-amine] | 1.8 µM | > 10000 nM |  |  | 
21 | CC(C)C[C@@H](O)C(=O)N1CCC[C@@H](n2nc(-c3ccc(Oc4ccccc4)cc3)c3c(N)ncnc32)C1 [Compound 61, (R)-1-((R)-3-(4-amino-(4-phenoxyphenyl)-1H-pyrazolo[3,4-d]pyrimidin-1-yl)piperidin-1-yl)-2-hydroxyl-4-methylpentan-1-one] | 0.48 µM |  | 0.948 µM | 7210 nM | IC50 [4]: 2120 nM
22 | CS(=O)(=O)N1CC[C@@H](n2nc(-c3ccc(Oc4ccccc4)cc3)c3c(N)ncnc32)C1 [Compound 67, (R)-1-(1-(methylsulfonyl)pyrrolidin-3-yl)-3-(4-phenoxyphenyl)-1H-pyrazolo[3,4-d]pyrimidin-4-amine] | 0.13 µM |  | 0.42 µM | > 10000 nM | IC50 [4]: 1460 nM
23 | CC(C)C[C@@H](N)C(=O)N[C@H]1CC[C@H](n2nc(-c3ccc(Oc4ccccc4)cc3)c3c(N)ncnc32)CC1 (stereo in doubt) [Compound 85, (R)-2-amino-N-(4-(4-amino-3-(4-phenoxyphenyl)-1H-pyrazolo[3,4-d]pyrimidin-1-yl)trans-1,4-cyclohexyl)-4-methylpentanamide hydrochloride] |  |  |  | 950 nM | IC50 ([3]; MV4-11, 72 h, read-out: MV4-11 IC50 [μM]): 0.51 µM; IC50 ([1]; Mus musculus, 72 h, read-out: TEL-BaF3-FLT3/ITD IC50 [μM], incubated for 72 hours): 0.082 µM
24 | Nc1ncnc2c1c(-c1ccc(Oc3ccccc3)cc1)nn2[C@@H]1CCCN(C(=O)c2cncnc2)C1 [Compound 15, (R)-(3-(4-amino-(4-phenoxyphenyl)-1H-pyrazolo[3,4-d]pyrimidin-1-yl)piperidin-1-yl)(pyrimidin-5-yl)methanone] | 0.2 µM | > 10000 nM |  |  | 
25 | Nc1ncnc2c1c(-c1ccc(Oc3ccccc3)cc1)nn2[C@@H]1CCCN(C(=O)c2cccnc2)C1 [Compound 13, (R)-(3-(4-amino-(4-phenoxyphenyl)-1H-pyrazolo[3,4-d]pyrimidin-1-yl)piperidin-1-yl)(pyridin-3-yl)methanone] | 0.45 µM | > 10000 nM |  |  | 
26 | CS(=O)(=O)N1CCC(n2nc(-c3ccc(Oc4ccccc4)cc3)c3c(N)ncnc32)CC1 [Compound 73, 1-(1-(methylsulfonyl)piperidin-4-yl)-3-(4-phenoxyphenyl)-1H-pyrazolo[3,4-d]pyrimidin-4-amine] | 0.19 µM |  |  | > 10000 nM | 
27 | CN1CCN(CCC(=O)N2CCC[C@@H](n3nc(-c4ccc(Oc5ccccc5)cc4)c4c(N)ncnc43)C2)CC1 [Compound 58] | 0.094 µM |  | 0.058 µM | 3720 nM | IC50 [4]: 190 nM; IC50 [6]: 270 nM; IC50 [7]: 7400 nM; IC50 [8]: 150 nM
28 | NC(=O)CC[C@H](N)C(=O)N1CCC[C@@H](n2nc(-c3ccc(Oc4ccccc4)cc3)c3c(N)ncnc32)C1 [Compound 56] | 0.49 µM |  | 0.24 µM | > 10000 nM | IC50 [4]: 710 nM
